Here are results for five compounds from US5739334A (Istituto Ricerca Francesco Angelini S.p.A., priority 1992, dated 1998).

Where only a bound is given, the exact number is not on record here.

The test system of one series is serotonin 2. The experiment in a line: Chemical bond studies: interference with serotonin 2 receptor (% inhibition). It counts as binding. The settings on record: table 2.
The next series concerns alpha 1. The series can be described thus: Chemical bond studies: interference with alpha 1 receptor (% inhibition). It counts as binding. The settings on record: table 2.
Another series is described as follows: DL50. It counts as in vivo. Details: unit not given beside the values. To be noted: species, route and unit not given.
The conditions of series [1]: Burger's Medicinal Chemistry, 4th ed. (1981); cited from earlier work.
The conditions of series [2]: attributed to action on adrenergic receptors (alpha 1 and alpha 2); cited from earlier work.

For `CC(CCn1nc2ccccn2c1=O)N1CCN(c2cccc(Cl)c2)CC1` (centres unmarked) [(I) R = R" = R"' = H; R' = CH3, 2-[3-[4-(3-chlorophenyl)-1-piperazinyl]-3-methylpropyl]-1,2,4-triazole-[4,3-a]-pyridin-3(2H)-one], the “serotonine 2 (% inhibition)” value in the series on serotonin 2 (C = 10^-5 M) came out at 100%; with serotonin 2 (C = 10^-7 M), 59%. Further, the entries for the “alpha 1 (% inhibition)” value in the series on alpha 1 (C = 10^-5 M) and in the series with alpha 1 (C = 10^-7 M) were 91% and 26%, respectively. In addition, in the series “DL50”, the DL50 is on record as not above 300.

For the compound `CC1CN(CCCn2nc3ccccn3c2=O)CCN1c1cccc(Cl)c1` (centres unmarked) [(I) R = R' = R" = H; R"' = CH3, 2-[3-[4-(3-chlorophenyl)-1-(3-methyl)-piperazinyl]-propyl]-1,2,4-triazole-[4,3-a]-pyridin-3(2H)-one], the “serotonine 2 (% inhibition)” value in the series on serotonin 2 (C = 10^-5 M) is 98%; with serotonin 2 (C = 10^-7 M), 68%. The “alpha 1 (% inhibition)” value with alpha 1 (C = 10^-5 M) came to 85%; in the series on alpha 1 (C = 10^-7 M), 20%. Moreover, the DL50 in “DL50” is not above 600.

With `CC1CN(c2cccc(Cl)c2)CCN1CCCn1nc2ccccn2c1=O` (centres unmarked) [(I) R = R' = R"' = H; R" = CH3, 2-[3-[4-(3-chlorophenyl)-1-(2-methyl)-piperazinyl]-propyl]-1,2,4-triazole-[4,3-a]-pyridin-3(2H)-one], the “serotonine 2 (% inhibition)” value amounted to 100% with serotonin 2 (C = 10^-5 M) and 69% in the series with serotonin 2 (C = 10^-7 M). Moreover, the “alpha 1 (% inhibition)” value was determined as 96% in the series with alpha 1 (C = 10^-5 M) and 37% in the series on alpha 1 (C = 10^-7 M). In “DL50”, this compound showed a DL50 of 300.

For `CC(CN1CCN(c2cccc(Cl)c2)CC1)Cn1nc2ccccn2c1=O` (centres unmarked) [(I) R' = R" = R"' = H; R = CH3, 2-[3-[4-(3-chlorophenyl)-1-piperazine]-2-methylpropyl]-1,2,4-triazole[4,3-a]-pyridin-3-(2H)-one], the “serotonine 2 (% inhibition)” value in the series on serotonin 2 (C = 10^-5 M) turned out to be 100%; in the series with serotonin 2 (C = 10^-7 M), 62%. In addition, the “alpha 1 (% inhibition)” value was determined as 88% in the series on alpha 1 (C = 10^-5 M) and 27% in the series with alpha 1 (C = 10^-7 M). This compound also had a DL50 in the series “DL50” not above 600.

As to `O=c1n(CCCN2CCN(c3cccc(Cl)c3)CC2)nc2ccccn12` [trazodone], in series [1], the clinical actions entry is on record as “diazepine-like clinical actions”. Besides, the sporadic side effects result in series [2] was “hypotension and priapism”. The compound further showed a DL50 in the series “DL50” not below 200.
